According to ChEMBL document CHEMBL1201862, “PubChem BioAssay data set” (2004):
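Method: 48-hour compound exposure of cells in 96-well plates, five concentrations, linear interpolation of endpoints. Here, GI50 denotes the concentration required for 50% inhibition of growth.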 The source made the active and inactive calls. Rule as the data show it: active = GI50 up to about 1.1 µM and inactive = higher.

Legend:
Test in all cases: NCI tumour cell line growth inhibition, 48 h
U-251 = test system: U-251
M14 = test system: M14
BT-549 = test system: BT-549
UACC-257 = test system: UACC-257
MDA-MB-231 = test system: MDA-MB-231
RPMI-8226 = test system: RPMI-8226
SK-MEL-28 = test system: SK-MEL-28
MCF7 = test system: MCF7
Hs-578T = test system: Hs-578T
SNB-75 = test system: SNB-75
786-0 = test system: 786-0
ACHN = test system: ACHN
OVCAR-8 = test system: OVCAR-8
HT-29 = test system: HT-29
NCI-H522 = test system: NCI-H522
IGROV-1 = test system: IGROV-1
DU-145 = test system: DU-145
NCI-H23 = test system: NCI-H23

Measured: GI50

O=C1c2cc(Cl)ccc2-n2cnnc2C2CSCN12 (stereo not drawn)
inactive: U-251 > 100 µM | M14 > 100 µM | BT-549 > 100 µM | UACC-257 > 100 µM | MDA-MB-231 > 100 µM | RPMI-8226 > 100 µM | SK-MEL-28 > 100 µM | MCF7 > 100 µM | Hs-578T > 100 µM | SNB-75 > 100 µM | 786-0 > 100 µM | ACHN > 100 µM | OVCAR-8 > 100 µM | HT-29 > 100 µM | NCI-H522 > 100 µM | IGROV-1 > 100 µM | DU-145 > 100 µM

O=C(c1ccccc1Br)C(F)(F)F
inactive: U-251 > 100 µM | M14 > 100 µM | BT-549 > 100 µM | MDA-MB-231 > 100 µM | RPMI-8226 > 100 µM | SK-MEL-28 > 100 µM | MCF7 > 100 µM | NCI-H23 > 100 µM | Hs-578T > 100 µM | SNB-75 > 100 µM | 786-0 > 100 µM | ACHN > 100 µM | OVCAR-8 > 100 µM | HT-29 > 100 µM | NCI-H522 > 100 µM | IGROV-1 > 100 µM | DU-145 > 100 µM

CC1=C2C3=C(C)C(=O)C(C)(C)CC[C@@]3(C)[C@]2(C)CCC(C)(C)C1=O
inactive: U-251 > 100 µM | M14 > 100 µM | BT-549 > 100 µM | UACC-257 > 100 µM | MDA-MB-231 > 100 µM | RPMI-8226 > 100 µM | MCF7 > 100 µM | NCI-H23 > 100 µM | Hs-578T > 100 µM | SNB-75 > 100 µM | 786-0 > 100 µM | ACHN > 100 µM | OVCAR-8 > 100 µM | HT-29 > 100 µM | NCI-H522 > 100 µM | IGROV-1 > 100 µM | DU-145 > 100 µM

Cc1ncc([N+](=O)[O-])n1CCNC(=O)CCCn1ccnc1[N+](=O)[O-]
inactive: U-251 > 100 µM | M14 > 100 µM | BT-549 > 100 µM | UACC-257 > 100 µM | MDA-MB-231 > 100 µM | RPMI-8226 > 100 µM | SK-MEL-28 > 100 µM | MCF7 > 100 µM | NCI-H23 > 100 µM | Hs-578T > 100 µM | SNB-75 > 100 µM | 786-0 > 100 µM | ACHN > 100 µM | OVCAR-8 > 100 µM | HT-29 > 100 µM | IGROV-1 > 100 µM | DU-145 > 100 µM
